Consider one molecule from article PMC11508633, “In Silico Discovery of a Novel PI3Kδ Inhibitor Incorporating 3,5,7-Trihydroxychroman-4-one Targeting Diffuse Large B-Cell Lymphoma” (International Journal of Molecular Sciences, 2024).

The target in this experiment is T1, PI3Kδ (Homo sapiens, UniProt O00329).
T1 construct: gene PIK3CD; PI3Kδ (p120δ/p85α); with p85α
Briefly: ADP-Glo kinase assay (PIP2:PS substrate, […] ATP). The experiment is classed as biochemical.

Structures are written as SMILES. pIC50: −log10 of the molar value.

T1 sequence (O00329 whole entry): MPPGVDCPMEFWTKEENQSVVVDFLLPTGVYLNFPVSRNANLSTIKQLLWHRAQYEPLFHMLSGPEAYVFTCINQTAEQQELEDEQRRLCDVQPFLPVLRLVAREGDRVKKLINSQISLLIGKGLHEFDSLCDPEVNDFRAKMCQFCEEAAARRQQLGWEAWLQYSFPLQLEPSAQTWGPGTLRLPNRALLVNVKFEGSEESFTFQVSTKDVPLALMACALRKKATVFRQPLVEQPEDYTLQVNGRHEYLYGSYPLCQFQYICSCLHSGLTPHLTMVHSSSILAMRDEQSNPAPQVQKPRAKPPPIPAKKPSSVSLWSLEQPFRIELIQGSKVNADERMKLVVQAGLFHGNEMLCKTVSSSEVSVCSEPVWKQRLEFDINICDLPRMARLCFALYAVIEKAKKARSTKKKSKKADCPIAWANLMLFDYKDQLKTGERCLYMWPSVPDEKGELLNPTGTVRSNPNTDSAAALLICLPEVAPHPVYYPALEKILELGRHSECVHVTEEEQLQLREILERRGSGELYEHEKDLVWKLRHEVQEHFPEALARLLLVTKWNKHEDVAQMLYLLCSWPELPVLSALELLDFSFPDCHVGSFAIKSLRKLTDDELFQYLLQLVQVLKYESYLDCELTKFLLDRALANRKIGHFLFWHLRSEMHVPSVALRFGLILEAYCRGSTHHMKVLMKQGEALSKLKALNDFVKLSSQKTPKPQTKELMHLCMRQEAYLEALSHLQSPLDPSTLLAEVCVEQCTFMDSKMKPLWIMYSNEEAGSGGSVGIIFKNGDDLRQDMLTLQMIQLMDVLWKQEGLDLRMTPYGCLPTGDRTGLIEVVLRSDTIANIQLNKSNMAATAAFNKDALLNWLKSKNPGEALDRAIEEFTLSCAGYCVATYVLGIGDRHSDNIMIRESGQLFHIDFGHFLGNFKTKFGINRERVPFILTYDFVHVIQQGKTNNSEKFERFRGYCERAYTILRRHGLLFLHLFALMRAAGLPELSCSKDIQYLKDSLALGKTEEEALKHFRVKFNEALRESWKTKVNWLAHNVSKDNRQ
T1 sequence (P27986 2-724 partner): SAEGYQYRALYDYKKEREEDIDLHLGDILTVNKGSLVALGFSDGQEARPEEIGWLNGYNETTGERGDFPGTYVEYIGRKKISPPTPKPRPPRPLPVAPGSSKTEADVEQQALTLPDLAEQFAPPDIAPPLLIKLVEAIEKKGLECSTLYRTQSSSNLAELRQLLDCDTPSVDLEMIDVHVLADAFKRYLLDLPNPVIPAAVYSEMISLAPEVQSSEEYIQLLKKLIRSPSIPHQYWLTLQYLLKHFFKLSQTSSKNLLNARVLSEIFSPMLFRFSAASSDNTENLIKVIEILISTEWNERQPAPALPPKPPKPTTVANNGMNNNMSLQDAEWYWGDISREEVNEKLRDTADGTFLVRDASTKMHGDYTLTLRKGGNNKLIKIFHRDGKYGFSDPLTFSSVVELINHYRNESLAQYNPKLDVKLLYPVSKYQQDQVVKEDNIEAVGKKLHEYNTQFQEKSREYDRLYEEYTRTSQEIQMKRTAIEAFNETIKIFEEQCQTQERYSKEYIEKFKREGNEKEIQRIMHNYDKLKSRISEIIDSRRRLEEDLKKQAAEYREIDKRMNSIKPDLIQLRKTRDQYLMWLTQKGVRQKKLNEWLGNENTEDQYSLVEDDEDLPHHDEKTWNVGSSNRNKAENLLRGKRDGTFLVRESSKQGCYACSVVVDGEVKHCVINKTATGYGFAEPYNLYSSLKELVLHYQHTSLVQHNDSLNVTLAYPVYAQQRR

As to `COc1cc(C2Oc3cc([C@H]4Oc5cc(O)cc(O)c5C(=O)[C@@H]4O)ccc3OC2CO)ccc1O` (stereo partly shown) [Silibinin], the negative logarithm of the IC50 (pIC50) (commonly the IC50 on a negative log10 scale, so that one unit is a factor of ten) is 3.54.
